{
  "source": "patent US11945822B2",
  "about": "“Pyrazolo-triazine and/or pyrazolo-pxrimidine derivatives as selective inhibitor of cyclin dependent kinase” (QURIENT CO., LTD., priority 2018, dated 2024)",
  "test_in_all_cases": "In vitro IC50 profile for CDKs family kinase (33PanQinase radiometric assay)",
  "assay_type_in_all_cases": "biochemical",
  "settings_in_all_cases": "CDK7 selectivity profile in CDKs family",
  "key": {"CDK1/CycB1": {"target": "T1, CDK1/CycB1 (Homo sapiens, UniProt P06493)", "T1 construct": "purchased ProQinase GmbH", "description": "(§1) In Vitro IC50 Profile for CDK7 Inhibitor Among 28 CDKs Family Kinases.\n(§2) The IC50 profile of compounds were determined using 28 CDKs family protein kinases through ProQinase GmbH (Freiburg, Germany). All the protocol and materials had been provided by ProQinase GmbH. Briefly, in the process, 90 μl H2O were added to each well of a compound dilution plate. To minimize potential precipitation, the H2O was added to the plate only a few minutes before the transfer of the compound solutions into the assay plates. The plate was shaken thoroughly, resulting in a “compound dilution plate/10% DMSO”. The compound dilution plate(s) were discarded at the end of the working day. For the assays (see below), 5 μl solution from each well of the compound dilution plate were transferred into the assay plates. The final volume of the assay was 50 μl. All compounds were tested at 10 final assay concentrations in the range from 1×10^−05 M to 3×10^−10 M. The final DMSO concentration in the reaction cocktails was 1% in all cases. All protein kinases provided by ProQinase were expressed in Sf9 insect cells or in E. coli as recombinant GST-fusion proteins or His-tagged proteins, either as full-length or enzymatically active fragments. All kinases were produced from human cDNAs and purified by either GSH affinity chromatography or immobilized metal affinity chromatography. The purity of the protein kinases was examined by SDS-PAGE/Coomassie staining, the identity was checked by mass spectroscopy. Kinases from external vendors, Carna Biosciences Inc.; Invitrogen Corp.; and Millipore Corp., were expressed, purified and quality-controlled by virtue of the vendors readings. A radiometric protein kinase assay (^33PanQinase® Activity Assay) was used for measuring the kinase activity of the 28 protein kinases. All kinase assays were performed in 96-well FlashPlates™ from PerkinElmer (Boston, MA, USA) in a 50 μl reaction volume. The reaction cocktails were incubated at 30° C. for 60 minutes. The reaction was stopped with 50 μl of 2% (v/v) H3PO4, plates were aspirated and washed two times with 200 μl 0.9% (w/v) NaCl. Incorporation of ^33Pi was determined with a microplate scintillation counter (Microbeta, Wallac). All assays were performed with a BeckmanCoulter/SAGIAN™ Core System. As part of the data evaluation the low control value from a particular plate was subtracted from the high control value as well as from all 80 “compound values” of the corresponding plate. The residual activity (in %) for each well of a particular plate was calculated by using the following formula: Res. Activity (%)=100×[(cpm of compound−low control)/(high control−low control)]. Results are represented in table (table 10)."}, "CDK9/CycK": {"target": "T2, CDK9/CycK (Homo sapiens, UniProt P50750)", "T2 construct": "purchased ProQinase GmbH", "description": "as §1, §2"}, "CDK4/CycD2": {"target": "T3, CDK4/CycD2 (Homo sapiens, UniProt P11802)", "T3 construct": "purchased ProQinase GmbH", "description": "as §1, §2"}, "CDK17/p35NCK": {"target": "T4, CDK17/p35NCK (Homo sapiens, UniProt Q00537)", "T4 construct": "either as full-length or enzymatically active fragments; purchased ProQinase GmbH (Freiburg, Germany)", "description": "as §1, §2"}, "CDK6/CycD1": {"target": "T5, CDK6/CycD1 (Homo sapiens, UniProt Q00534)", "T5 construct": "purchased ProQinase GmbH", "description": "as §1, §2"}, "CDK9/CycT1": {"target": "T6, CDK9/CycT1 (Homo sapiens, UniProt P50750)", "T6 construct": "purchased ProQinase GmbH", "description": "as §1, §2"}, "CDK6/CycD3": {"target": "T7, CDK6/CycD3 (Homo sapiens, UniProt Q00534)", "T7 construct": "purchased ProQinase GmbH", "description": "as §1, §2"}, "CDK13/CycK": {"target": "T8, CDK13/CycK (Homo sapiens, UniProt Q14004)", "T8 construct": "either as full-length or enzymatically active fragments; purchased ProQinase GmbH (Freiburg, Germany)", "description": "as §1, §2"}, "CDK2/CycA2": {"target": "T9, CDK2/CycA2 (Homo sapiens, UniProt P24941)", "T9 construct": "purchased ProQinase GmbH", "description": "as §1, §2"}, "CDK20/CycT1": {"target": "T10, CDK20/CycT1 (Homo sapiens, UniProt Q8IZL9)", "T10 construct": "either as full-length or enzymatically active fragments; purchased ProQinase GmbH (Freiburg, Germany)", "description": "as §1, §2"}, "CDK5/p25NCK": {"target": "T11, CDK5/p25NCK (Homo sapiens, UniProt Q00535)", "T11 construct": "purchased ProQinase GmbH", "T11 sequence (Q00535 whole entry)": "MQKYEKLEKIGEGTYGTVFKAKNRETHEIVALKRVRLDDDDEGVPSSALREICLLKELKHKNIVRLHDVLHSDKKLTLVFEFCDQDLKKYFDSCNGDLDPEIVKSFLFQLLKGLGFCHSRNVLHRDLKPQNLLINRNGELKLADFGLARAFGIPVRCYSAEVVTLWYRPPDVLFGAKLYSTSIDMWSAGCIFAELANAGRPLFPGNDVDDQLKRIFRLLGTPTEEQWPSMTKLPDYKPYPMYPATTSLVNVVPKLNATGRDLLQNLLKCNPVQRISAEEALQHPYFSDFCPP", "T11 sequence (Q15078 99-307 partner limits assumed)": "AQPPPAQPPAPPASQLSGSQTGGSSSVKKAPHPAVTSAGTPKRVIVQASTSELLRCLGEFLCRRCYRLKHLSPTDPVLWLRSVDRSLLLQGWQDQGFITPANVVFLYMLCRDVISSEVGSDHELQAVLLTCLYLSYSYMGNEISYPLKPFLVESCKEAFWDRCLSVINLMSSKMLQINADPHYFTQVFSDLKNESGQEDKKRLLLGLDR", "description": "as §1, §2"}, "CDK1/CycA2": {"target": "T12, CDK1/CycA2 (Homo sapiens, UniProt P06493)", "T12 construct": "purchased ProQinase GmbH", "description": "as §1, §2"}, "CDK12 wt/CycK": {"target": "T13, CDK12 wt/CycK (Homo sapiens, UniProt Q9NYV4)", "T13 construct": "purchased ProQinase GmbH", "description": "as §1, §2"}, "CDK2/CycE1": {"target": "T14, CDK2/CycE1 (Homo sapiens, UniProt P24941)", "T14 construct": "purchased ProQinase GmbH", "description": "as §1, §2"}, "CDK5/p35NCK": {"target": "T15, CDK5/p35NCK (Homo sapiens, UniProt Q00535)", "T15 construct": "purchased ProQinase GmbH", "description": "as §1, §2"}, "CDK12 R722C/CycK": {"target": "T16, CDK12 R722C/CycK (Homo sapiens, UniProt Q9NYV4, R722C)", "T16 construct": "either as full-length or enzymatically active fragments; purchased ProQinase GmbH (Freiburg, Germany)", "T16 sequence (Q9NYV4 whole entry R722C, the tested form may be a part)": "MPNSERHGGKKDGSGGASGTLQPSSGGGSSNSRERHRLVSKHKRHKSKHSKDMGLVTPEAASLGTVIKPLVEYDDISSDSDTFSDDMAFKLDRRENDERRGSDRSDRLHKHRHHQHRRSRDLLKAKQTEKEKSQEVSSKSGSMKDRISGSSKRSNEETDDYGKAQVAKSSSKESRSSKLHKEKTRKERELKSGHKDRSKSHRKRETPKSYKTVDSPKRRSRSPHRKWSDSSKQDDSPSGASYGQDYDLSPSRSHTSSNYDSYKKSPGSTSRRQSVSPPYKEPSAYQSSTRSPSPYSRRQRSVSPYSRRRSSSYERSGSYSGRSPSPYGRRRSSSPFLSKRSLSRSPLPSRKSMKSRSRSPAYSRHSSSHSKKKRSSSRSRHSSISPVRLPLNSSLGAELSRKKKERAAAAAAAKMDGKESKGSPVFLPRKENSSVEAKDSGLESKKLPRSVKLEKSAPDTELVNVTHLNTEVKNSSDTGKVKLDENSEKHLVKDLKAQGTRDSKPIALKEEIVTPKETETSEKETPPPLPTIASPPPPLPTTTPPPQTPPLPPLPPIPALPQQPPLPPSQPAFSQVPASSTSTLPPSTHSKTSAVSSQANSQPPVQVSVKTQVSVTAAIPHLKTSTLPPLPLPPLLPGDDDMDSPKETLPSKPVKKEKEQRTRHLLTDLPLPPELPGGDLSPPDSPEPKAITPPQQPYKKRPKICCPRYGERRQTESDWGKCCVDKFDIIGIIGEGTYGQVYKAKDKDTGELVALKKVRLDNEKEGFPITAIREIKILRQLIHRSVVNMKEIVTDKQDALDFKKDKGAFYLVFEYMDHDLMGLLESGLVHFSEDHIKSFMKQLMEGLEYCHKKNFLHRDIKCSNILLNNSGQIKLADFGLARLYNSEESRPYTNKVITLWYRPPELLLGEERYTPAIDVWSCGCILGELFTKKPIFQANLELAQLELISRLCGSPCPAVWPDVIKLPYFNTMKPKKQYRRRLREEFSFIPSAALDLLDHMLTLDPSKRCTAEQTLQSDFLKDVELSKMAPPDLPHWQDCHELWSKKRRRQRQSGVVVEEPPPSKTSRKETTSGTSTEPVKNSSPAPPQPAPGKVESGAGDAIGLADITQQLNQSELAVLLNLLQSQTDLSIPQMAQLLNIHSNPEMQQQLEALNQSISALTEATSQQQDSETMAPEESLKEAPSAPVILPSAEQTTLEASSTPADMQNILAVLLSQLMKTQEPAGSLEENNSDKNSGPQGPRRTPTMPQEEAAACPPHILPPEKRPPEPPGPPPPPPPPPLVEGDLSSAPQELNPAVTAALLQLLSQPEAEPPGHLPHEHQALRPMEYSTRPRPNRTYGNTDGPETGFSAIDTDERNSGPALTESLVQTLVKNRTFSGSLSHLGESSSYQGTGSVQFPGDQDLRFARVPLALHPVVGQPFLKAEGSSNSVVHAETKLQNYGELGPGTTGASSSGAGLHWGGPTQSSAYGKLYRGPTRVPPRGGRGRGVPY", "T16 sequence (O75909 whole entry partner, the tested form may be a part)": "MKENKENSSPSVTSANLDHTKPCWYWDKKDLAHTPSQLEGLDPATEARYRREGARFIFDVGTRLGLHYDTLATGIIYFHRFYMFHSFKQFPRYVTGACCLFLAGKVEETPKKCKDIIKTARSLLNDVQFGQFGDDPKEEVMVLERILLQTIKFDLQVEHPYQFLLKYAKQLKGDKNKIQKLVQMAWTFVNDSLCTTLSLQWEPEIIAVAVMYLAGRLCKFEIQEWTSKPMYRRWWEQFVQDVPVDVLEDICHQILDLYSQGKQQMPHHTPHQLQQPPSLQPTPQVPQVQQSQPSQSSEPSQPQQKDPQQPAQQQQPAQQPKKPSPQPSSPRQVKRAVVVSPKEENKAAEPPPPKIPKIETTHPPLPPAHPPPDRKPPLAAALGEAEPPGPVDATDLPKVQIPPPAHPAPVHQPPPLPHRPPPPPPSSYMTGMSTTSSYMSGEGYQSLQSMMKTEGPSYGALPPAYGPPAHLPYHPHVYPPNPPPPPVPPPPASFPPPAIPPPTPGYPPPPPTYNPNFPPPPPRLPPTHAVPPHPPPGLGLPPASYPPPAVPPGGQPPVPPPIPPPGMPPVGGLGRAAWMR", "description": "as §1, §2"}, "CDK8/CycC": {"target": "T17, CDK8/CycC (Homo sapiens, UniProt P49336)", "T17 construct": "purchased ProQinase GmbH", "T17 sequence (P49336 whole entry)": "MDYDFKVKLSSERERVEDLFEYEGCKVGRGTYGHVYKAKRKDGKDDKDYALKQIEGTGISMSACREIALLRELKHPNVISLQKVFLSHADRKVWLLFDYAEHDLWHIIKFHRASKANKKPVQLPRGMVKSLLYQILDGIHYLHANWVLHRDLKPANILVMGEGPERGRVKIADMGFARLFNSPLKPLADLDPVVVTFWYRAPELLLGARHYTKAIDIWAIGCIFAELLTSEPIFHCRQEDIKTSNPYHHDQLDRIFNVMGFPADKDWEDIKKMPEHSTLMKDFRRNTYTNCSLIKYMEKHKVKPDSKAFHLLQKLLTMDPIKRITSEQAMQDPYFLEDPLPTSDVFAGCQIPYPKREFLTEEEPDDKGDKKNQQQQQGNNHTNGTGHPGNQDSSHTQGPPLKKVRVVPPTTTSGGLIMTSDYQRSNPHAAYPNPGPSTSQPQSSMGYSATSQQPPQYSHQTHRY", "T17 sequence (P24863 whole entry partner)": "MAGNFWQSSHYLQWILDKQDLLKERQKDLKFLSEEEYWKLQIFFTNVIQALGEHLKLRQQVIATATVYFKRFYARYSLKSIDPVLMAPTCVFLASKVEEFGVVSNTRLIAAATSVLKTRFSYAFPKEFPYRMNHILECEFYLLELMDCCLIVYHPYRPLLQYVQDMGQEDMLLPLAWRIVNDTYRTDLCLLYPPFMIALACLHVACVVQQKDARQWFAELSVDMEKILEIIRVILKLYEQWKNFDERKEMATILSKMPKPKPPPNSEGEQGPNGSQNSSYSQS", "description": "as §1, §2"}, "CDK20/CycH": {"target": "T18, CDK20/CycH (Homo sapiens, UniProt Q8IZL9)", "T18 construct": "either as full-length or enzymatically active fragments; purchased ProQinase GmbH (Freiburg, Germany)", "T18 sequence (Q8IZL9 whole entry, the tested form may be a part)": "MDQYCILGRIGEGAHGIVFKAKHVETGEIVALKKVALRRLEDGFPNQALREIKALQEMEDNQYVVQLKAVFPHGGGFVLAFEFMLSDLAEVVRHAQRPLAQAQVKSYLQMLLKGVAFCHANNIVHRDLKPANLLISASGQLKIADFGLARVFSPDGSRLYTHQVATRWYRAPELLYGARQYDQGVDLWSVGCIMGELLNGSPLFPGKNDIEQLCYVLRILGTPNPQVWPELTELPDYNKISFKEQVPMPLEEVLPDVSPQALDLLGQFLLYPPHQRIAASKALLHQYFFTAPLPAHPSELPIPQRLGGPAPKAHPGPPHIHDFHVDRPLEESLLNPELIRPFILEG", "T18 sequence (P51946 whole entry partner, the tested form may be a part)": "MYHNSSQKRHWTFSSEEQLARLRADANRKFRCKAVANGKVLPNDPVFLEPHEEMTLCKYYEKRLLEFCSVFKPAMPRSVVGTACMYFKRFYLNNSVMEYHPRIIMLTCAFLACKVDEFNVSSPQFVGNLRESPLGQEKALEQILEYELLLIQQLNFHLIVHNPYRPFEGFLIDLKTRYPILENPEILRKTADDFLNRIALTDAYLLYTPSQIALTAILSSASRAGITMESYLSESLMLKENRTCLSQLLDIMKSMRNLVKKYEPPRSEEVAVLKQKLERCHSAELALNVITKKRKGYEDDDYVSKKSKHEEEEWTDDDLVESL", "description": "as §1, §2"}, "CDK4/CycD1": {"target": "T19, CDK4/CycD1 (Homo sapiens, UniProt P11802)", "T19 construct": "purchased ProQinase GmbH", "description": "as §1, §2"}, "CDK2/CycD1": {"target": "T20, CDK2/CycD1 (Homo sapiens, UniProt P24941)", "T20 construct": "purchased ProQinase GmbH", "description": "as §1, §2"}, "CDK3/CycE1": {"target": "T21, CDK3/CycE1 (Homo sapiens, UniProt Q00526)", "T21 construct": "purchased ProQinase GmbH", "description": "as §1, §2"}, "CDK7/CycH/MAT1": {"target": "T22, CDK7/CycH/MAT1 (Homo sapiens, UniProt P50613)", "T22 construct": "purchased ProQinase GmbH", "description": "as §1, §2"}, "CDK6/CycD2": {"target": "T23, CDK6/CycD2 (Homo sapiens, UniProt Q00534)", "T23 construct": "purchased ProQinase GmbH", "T23 sequence (Q00534 whole entry)": "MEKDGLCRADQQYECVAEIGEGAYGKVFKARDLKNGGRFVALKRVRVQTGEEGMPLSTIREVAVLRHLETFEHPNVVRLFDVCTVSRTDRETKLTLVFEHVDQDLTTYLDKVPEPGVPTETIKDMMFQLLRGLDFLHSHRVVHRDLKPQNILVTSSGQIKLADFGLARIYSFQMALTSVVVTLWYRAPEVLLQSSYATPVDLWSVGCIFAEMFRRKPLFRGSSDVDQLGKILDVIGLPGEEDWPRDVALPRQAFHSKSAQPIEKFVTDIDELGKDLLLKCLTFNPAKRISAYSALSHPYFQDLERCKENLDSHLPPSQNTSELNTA", "T23 sequence (P30279 whole entry partner)": "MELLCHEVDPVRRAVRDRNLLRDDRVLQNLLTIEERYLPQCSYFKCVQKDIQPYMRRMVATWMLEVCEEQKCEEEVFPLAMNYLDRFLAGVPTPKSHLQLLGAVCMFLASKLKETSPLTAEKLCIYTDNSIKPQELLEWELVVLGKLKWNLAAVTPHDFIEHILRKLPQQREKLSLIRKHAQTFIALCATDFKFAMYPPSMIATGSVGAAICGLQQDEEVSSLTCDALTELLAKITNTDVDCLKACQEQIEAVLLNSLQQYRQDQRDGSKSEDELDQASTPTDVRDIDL", "description": "as §1, §2"}, "CDK4/CycD3": {"target": "T24, CDK4/CycD3 (Homo sapiens, UniProt P11802)", "T24 construct": "purchased ProQinase GmbH", "description": "as §1, §2"}, "CDK3/CycC": {"target": "T25, CDK3/CycC (Homo sapiens, UniProt Q00526)", "T25 construct": "purchased ProQinase GmbH", "T25 sequence (Q00526 whole entry)": "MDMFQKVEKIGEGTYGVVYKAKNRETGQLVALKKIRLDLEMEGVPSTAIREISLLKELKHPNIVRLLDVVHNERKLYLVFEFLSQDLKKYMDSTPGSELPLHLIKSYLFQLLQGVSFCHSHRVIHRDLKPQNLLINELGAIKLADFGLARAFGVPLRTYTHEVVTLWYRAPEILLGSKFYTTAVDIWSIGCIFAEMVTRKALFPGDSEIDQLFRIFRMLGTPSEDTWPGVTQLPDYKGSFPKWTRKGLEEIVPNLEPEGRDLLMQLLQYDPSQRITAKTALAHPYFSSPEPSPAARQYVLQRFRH", "T25 sequence (P24863 whole entry partner)": "as the sequence (P24863 whole entry partner) above", "description": "as §1, §2"}},
  "data": [
    {"smiles": "CC(C)c1cnn2c(NCc3c(Cl)cccc3-n3ccc(C(C)(C)O)n3)nc(N3CCC(N)CC3)nc12", "note": "[Compound 210]", "values": [
      {"measurement": "IC50", "setting": "CDK1/CycB1", "value": "> 10", "unit": "µM"},
      {"measurement": "IC50", "setting": "CDK9/CycK", "value": "> 10", "unit": "µM"},
      {"measurement": "IC50", "setting": "CDK4/CycD2", "value": "> 10", "unit": "µM"},
      {"measurement": "IC50", "setting": "CDK17/p35NCK", "value": "> 10", "unit": "µM"},
      {"measurement": "IC50", "setting": "CDK6/CycD1", "value": "> 10", "unit": "µM"},
      {"measurement": "IC50", "setting": "CDK9/CycT1", "value": "> 10", "unit": "µM"},
      {"measurement": "IC50", "setting": "CDK6/CycD3", "value": "> 10", "unit": "µM"},
      {"measurement": "IC50", "setting": "CDK13/CycK", "value": "> 10", "unit": "µM"},
      {"measurement": "IC50", "setting": "CDK2/CycA2", "value": 3.61, "unit": "µM"},
      {"measurement": "IC50", "setting": "CDK20/CycT1", "value": "> 10", "unit": "µM"},
      {"measurement": "IC50", "setting": "CDK5/p25NCK", "value": "> 10", "unit": "µM"},
      {"measurement": "IC50", "setting": "CDK1/CycA2", "value": "> 10", "unit": "µM"},
      {"measurement": "IC50", "setting": "CDK12 wt/CycK", "value": "> 10", "unit": "µM"},
      {"measurement": "IC50", "setting": "CDK2/CycE1", "value": 3.48, "unit": "µM"},
      {"measurement": "IC50", "setting": "CDK5/p35NCK", "value": 4.79, "unit": "µM"},
      {"measurement": "IC50", "setting": "CDK12 R722C/CycK", "value": "> 10", "unit": "µM"},
      {"measurement": "IC50", "setting": "CDK8/CycC", "value": "> 10", "unit": "µM"},
      {"measurement": "IC50", "setting": "CDK20/CycH", "value": "> 10", "unit": "µM"},
      {"measurement": "IC50", "setting": "CDK4/CycD1", "value": "> 10", "unit": "µM"},
      {"measurement": "IC50", "setting": "CDK2/CycD1", "value": "> 10", "unit": "µM"},
      {"measurement": "IC50", "setting": "CDK3/CycE1", "value": "> 10", "unit": "µM"},
      {"measurement": "IC50", "setting": "CDK7/CycH/MAT1", "value": 0.015, "unit": "µM"},
      {"measurement": "IC50", "setting": "CDK6/CycD2", "value": "> 10", "unit": "µM"},
      {"measurement": "IC50", "setting": "CDK4/CycD3", "value": "> 10", "unit": "µM"},
      {"measurement": "IC50", "setting": "CDK3/CycC", "value": "> 10", "unit": "µM"}
    ]}
  ]
}
